The values that follow come from patent US6448442B1, “Contrast media” (Amersham Health AS, priority 1999, dated 2002).

The structures appear in SMILES notation.

A short description of this data set: Viscosity in aqueous solution at 20° C. (Example 82, Tables 1 and 2). Type of data set: physicochemical. The note with it: for Viscosity 350 mgI/ml (CALCULATED): calculated for 350 mgI/ml; for Viscosity at 400 mgI/ml (CALCULATED): calculated for 400 mgI/ml. As to the method: The viscosities in aqueous solution at 20° C. for some further compounds described above were determined and are listed in Table 2. […]

`O=C(NC(CO)C(O)CO)c1c(I)c(CO)c(I)c(N(CCO)C(=O)C(O)CO)c1I` (stereo not shown) [Example 39, 5-[N′-(2-Hydroxyethyl)-2,3-dihydroxypropionylamino]-3-hydroxymethyl-N-(1,3,4-trihydroxybut-2-yl)-2,4,6-triiodobenzamide]: the “Viscosity 350 mgI/ml (CALCULATED)” value is reported as 12.0 mPas and the “Viscosity at 400 mgI/ml (CALCULATED)” value is 20.4 mPas. For the same molecule, the “Viscosity 20° C.” value (concentration 372 mgI/ml) is listed as 15 mPas. The Viscosity (iodine concentration 372 mgI/mL) is given as 15 mPas.
`O=C(c1c(I)c(CO)c(I)c(N(CCO)C(=O)CO)c1I)N(CCO)CCO` [Example 41, 5-[N′-(2-Hydroxyethyl)-hydroxyacetamido]-3-hydroxymethyl-N,N-bis(2-hydroxyethyl)-2,4,6-triiodobenzamide]: the “Viscosity at 400 mgI/ml (CALCULATED)” value was 12.0 mPas. In addition, the “Viscosity 20° C.” value (concentration 508 mgI/ml) amounted to 40 mPas.
As for `O=C(Nc1c(I)c(CO)c(I)c(C(=O)N(CCO)CCO)c1I)C(O)CO` (stereo not shown) [Example 42, 5-(2,3-Dihydroxypropionylamino)-3-hydroxymethyl-N,N-bis(2-hydroxyethyl)-2,4,6-triiodobenzamide], the “Viscosity at 400 mgI/ml (CALCULATED)” value was 12.8 mPas. Also, under “concentration 488 mgI/ml”, the “Viscosity 20° C.” value stood at 34 mPas.
On to `O=C(c1c(I)c(CO)c(I)c(N(CCO)C(=O)C(O)CO)c1I)N(CCO)CCO` (stereo not shown) [Example 43, 5-[N′-(2-Hydroxyethyl)-2,3-dihydroxypropionylamino]-3-hydroxy-methyl-N,N-bis (2-hydroxyethyl)-2,4,6-triiodobenzamide], for which the “Viscosity at 400 mgI/ml (CALCULATED)” value is 14.2 mPas. Also, under “concentration 488 mgI/ml”, the “Viscosity 20° C.” value is 42 mPas.
As to `CN(CC(O)CO)C(=O)c1c(I)c(CCO)c(I)c(NC(=O)CO)c1I` (stereo not shown) [Example 44, 5-Hydroxyacetamido-3-hydroxyethyl-N-methyl-N-(2,3-dihydroxy-propyl)-2,4,6-triiodobenzamide], the “Viscosity at 400 mgI/ml (CALCULATED)” value is listed as 10.8 mPas. Besides, the “Viscosity 20° C.” value (concentration 481 mgI/ml) came to 24 mPas.
As for `CN(CC(O)CO)C(=O)c1c(I)c(CO)c(I)c(N(CCO)C(=O)CO)c1I` (stereo not shown) [Example 45, 5-[N′-(2-Hydroxyethyl)-hydroxyacetamido]-3-hydroxymethyl-N-methyl-N-(2,3-dihydroxypropyl)-2,4,6-triiodobenzamide], the “Viscosity at 400 mgI/ml (CALCULATED)” value is recorded as 13.9 mPas. For the same molecule, the “Viscosity 20° C.” value (concentration 483 mgI/ml) is 32 mPas.
With `CN(CC(O)CO)C(=O)c1c(I)c(CO)c(I)c(NC(=O)C(O)CO)c1I` (stereo not shown) [Example 46], the “Viscosity at 400 mgI/ml (CALCULATED)” value was 16.4 mPas. Further, the “Viscosity 20° C.” value (concentration 474 mgI/ml) stood at 41 mPas.
On to `CN(CC(O)CO)C(=O)c1c(I)c(CO)c(I)c(N(CCO)C(=O)C(O)CO)c1I` (stereo not shown) [Example 47, 5-[N′-(2-Hydroxyethyl)-2,3-dihydroxypropionylamino]-3-hydroxymethyl-N-methyl-N-(2,3-dihydroxypropyl)-2,4,6-triiodobenzamide], for which the “Viscosity at 400 mgI/ml (CALCULATED)” value was 16.4 mPas. In addition, the “Viscosity 20° C.” value (concentration 447 mgI/ml) stood at 28 mPas.
For the molecule `O=C(NC(CO)CO)c1c(I)c(CO)c(I)c(N(CCO)C(=O)CO)c1I` [Example 49, 5-[N′-(2-Hydroxyethyl)-hydroxyacetamido]-3-hydroxymethyl-N-(1,3-dihydroxyprop-2-yl)-2,4,6-triiodobenzamide], the “Viscosity at 400 mgI/ml (CALCULATED)” value is listed as 13.2 mPas. In addition, the “Viscosity 20° C.” value (concentration 380 mgI/ml) is 11 mPas.
Regarding `O=C(NCCO)c1c(I)c(CO)c(I)c(NC(=O)C(O)CO)c1I` (stereo not shown) [Example 52, 5-(2,3-Dihydroxypropionylamino)-3-hydroxymethyl-N-(2-hydroxyethyl)-2,4,6-triiodobenzamide], the “Viscosity at 400 mgI/ml (CALCULATED)” value is given as 9.8 mPas. Moreover, the “Viscosity 20° C.” value (concentration 514 mgI/ml) is given as 29 mPas.
With `O=C(NC(CO)(CO)CO)c1c(I)c(CO)c(I)c(N(CCO)C(=O)CO)c1I` [Example 55, 5-[N′-(2-Hydroxyethyl)-hydroxyacetamido]-3-hydroxymethyl-N-[tris-(hydroxymethyl)-methyl]-2,4,6-triiodobenzamide], the “Viscosity at 400 mgI/ml (CALCULATED)” value was 19.4 mPas. Besides, the “Viscosity 20° C.” value (concentration 429 mgI/ml) was determined as 28 mPas.
Consider `O=C(C(O)CO)N(CCO)c1c(I)c(CCO)c(I)c(N(CCO)C(=O)C(O)CO)c1I` (stereo not shown) [Example 62, 3,5-Bis[N-(2-hydroxyethyl)-2,3-dihydroxypropionylamino]-2,4,6-triiodo-(2-hydroxyethyl)benzene], for which the “Viscosity at 400 mgI/ml (CALCULATED)” value is 14.3 mPas. The “Viscosity 20° C.” value (concentration 353 mgI/ml) is 9 mPas.
Regarding `O=C(Nc1c(I)c(CC(O)CO)c(I)c(NC(=O)C(O)CO)c1I)C(O)CO` (stereo not shown) [Example 64, 3,5-Bis-(2,3-dihydroxypropionylamino)-2,4,6-triiodo-(2,3-dihydroxy-propyl)-benzene], the “Viscosity 350 mgI/ml (CALCULATED)” value was 8.3 mPas and the “Viscosity at 400 mgI/ml (CALCULATED)” value is listed as 13.0 mPas. Besides, the “Viscosity 20° C.” value (concentration 419 mgI/ml) stood at 16 mPas.
Regarding `CC(O)C(=O)N(CCO)c1c(I)c(CO)c(I)c(C(=O)NC(CO)C(O)CO)c1I` (stereo not shown) [Example 65, 5-[N′-(2-Hydroxyethyl)-2-hydroxypropionylamino]-3-hydroxymethyl-N-(1,3,4-trihydroxybut-2-yl)-2,4,6-triiodobenzamide], the “Viscosity 350 mgI/ml (CALCULATED)” value was 10.4 mPas and the “Viscosity at 400 mgI/ml (CALCULATED)” value is 17.8 mPas. Moreover, the “Viscosity 20° C.” value (concentration 413 mgI/ml) was found to be 21 mPas.
With `O=C(NCCO)c1c(I)c(CO)c(I)c(N(CC(O)CO)C(=O)C(O)CO)c1I` (stereo not shown) [Example 66, 5-[N′-(2,3-Dihydroxypropyl)-2,3-dihydroxypropionylamino]-3-hydroxymethyl-N-(2-hydroxyethyl)-2,4,6-triiodobenzamide], the “Viscosity 350 mgI/ml (CALCULATED)” value was 9.3 mPas and the “Viscosity at 400 mgI/ml (CALCULATED)” value was 15.2 mPas. In addition, under “concentration 401 mgI/ml”, the “Viscosity 20° C.” value worked out at 15 mPas.
Consider `O=C(CO)Nc1c(I)c(CO)c(I)c(C(=O)N(CC(O)CO)CC(O)CO)c1I` (stereo not shown) [Example 67, 5-(hydroxyacetamido)-3-hydroxymethyl-N,N-bis-(2,3-dihydroxy-propyl)-2,4,6-triiodobenzamide], for which the “Viscosity at 400 mgI/ml (CALCULATED)” value is on record as 16.2 mPas. The “Viscosity 20° C.” value (concentration 407 mgI/ml) is given as 18 mPas.
`O=C(c1c(I)c(CO)c(I)c(N(CCO)C(=O)CO)c1I)N(CC(O)CO)CC(O)CO` (stereo not shown) [Example 68, 5-[N′-(2-Hydroxyethyl)-hydroxyacetamido]-3-hydroxymethyl-N,N-bis-(2,3-dihydroxypropyl)-2,4,6-tiiodobenzamide]: the “Viscosity at 400 mgI/ml (CALCULATED)” value is given as 19.1 mPas. Moreover, the “Viscosity 20° C.” value (concentration 450 mgI/ml) worked out at 31 mPas.
In the case of `CC(O)C(=O)Nc1c(I)c(CO)c(I)c(C(=O)N(CC(O)CO)CC(O)CO)c1I` (stereo not shown) [Example 69, 5-(2-Hydroxypropionylamino)-3-hydroxymethyl-N,N-bis-(2,3-dihydroxypropyl)-2,4,6-triiodobenzamide], the “Viscosity at 400 mgI/ml (CALCULATED)” value is reported as 17.0 mPas. The “Viscosity 20° C.” value (concentration 417 mgI/ml) stood at 21 mPas.
On to `O=C(c1c(I)c(CO)c(I)c(N2CCCC(O)C2=O)c1I)N(CC(O)CO)CC(O)CO` (stereo not shown) [Example 70, 5-(3-Hydroxy-2-oxo-1-piperidinyl)-3-hydroxymethyl-N,N-bis-(2,3-dihydroxypropyl)-2,4,6-triiodobenzamide], for which the “Viscosity at 400 mgI/ml (CALCULATED)” value is 27.8 mPas. The “Viscosity 20° C.” value (concentration 361 mgI/ml) is listed as 16 mPas.
Regarding `O=C(CO)Nc1c(I)c(CC(O)CO)c(I)c(NC(=O)CO)c1I` (stereo not shown) [Example 71, 3,5-Bis-(Hydroxyacetamido)-2,4,6-triiodo-(2,3-dihydroxypropyl)benzene], the “Viscosity 350 mgI/ml (CALCULATED)” value is reported as 6.0 mPas and the “Viscosity at 400 mgI/ml (CALCULATED)” value is 8.8 mPas. The “Viscosity 20° C.” value (concentration 455 mgI/ml) was determined as 14 mPas.
As for `O=C(CO)Nc1c(I)c(CC(O)CO)c(I)c(N(CCO)C(=O)CO)c1I` (stereo not shown) [Example 72, 5-Hydroxyacetamido-3-[N-(2-hydroxyethyl)-hydroxyacetamido]-2,4,6-triiodo-(2,3-dihydroxypropyl)benzene], the “Viscosity 350 mgI/ml (CALCULATED)” value is given as 7.2 mPas and the “Viscosity at 400 mgI/ml (CALCULATED)” value is listed as 11.0 mPas. Further, where the note is “concentration 432 mgI/ml”, the “Viscosity 20° C.” value came out at 15 mPas.
As for `O=C(CO)N(CCO)c1c(I)c(CC(O)CO)c(I)c(N(CCO)C(=O)CO)c1I` (stereo not shown) [Example 73, 3,5-Bis-[N,N′-(2-hydroxyethyl)-hydroxyacetamido]-2,4,6-triiodo-(2,3-dihydroxypropyl)benzene], the “Viscosity 350 mgI/ml (CALCULATED)” value is given as 6.7 mPas and the “Viscosity at 400 mgI/ml (CALCULATED)” value was 10.4 mPas. Besides, under “concentration 396 mgI/ml”, the “Viscosity 20° C.” value turned out to be 10 mPas.
On to `O=C(CO)Nc1c(I)c(CC(O)CO)c(I)c(N(CC(O)CO)C(=O)CO)c1I` (stereo not shown) [Example 74, 5-Hydroxyacetamido-3-[N-(2,3-dihydroxypropyl)-hydroxyacetamido]-2,4,6-triiodo-(2,3-dihydroxypropyl)benzene], for which the “Viscosity 350 mgI/ml (CALCULATED)” value is reported as 9.3 mPas and the “Viscosity at 400 mgI/ml (CALCULATED)” value is given as 15.8 mPas. Where the note is “concentration 399 mgI/ml”, the “Viscosity 20° C.” value was 16 mPas.
Consider `O=C(CO)N(CC(O)CO)c1c(I)c(CC(O)CO)c(I)c(N(CC(O)CO)C(=O)CO)c1I` (stereo not shown) [Example 75, 3,5-Bis-[N,N′-(2,3-dihydroxypropyl)-hydroxyacetamido]-2,4,6-triiodo-(2,3-dihydroxypropyl)benzene], for which the “Viscosity 350 mgI/ml (CALCULATED)” value is recorded as 14.6 mPas and the “Viscosity at 400 mgI/ml (CALCULATED)” value is reported as 28.4 mPas. The “Viscosity 20° C.” value (concentration 359 mgI/ml) is listed as 16 mPas.
